± gives the standard deviation of the averaged measurements.
Assays:
Test in all cases: level (log10 ratio to DMSO vehicle control); higher = higher biomarker level / cell amount than vehicle control
Settings in all cases: in DMSO
[1] = compound: C=C(C)C(=O)OCC(F)(F)C(F)(F)C(F)(F)C(F)(F)C(F)(F)C(F)(F)C(F)(F)F
Protocol: (§1)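 BioMAP Diversity Plus panel of 12 human primary cell co-culture systems (3C, 4H, LPS, SAg, BT, BF4T, BE3C, CASM3C, HDF3CGF, KF3CT, MyoF, Mphg). Compounds were added 1 h before stimulation and left for 24 h (MyoF 48 h; BT 72 h for soluble read-outs or 6 d for IgG). Biomarkers were read by ELISA, cytotoxicity by SRB, PBMC viability and proliferation by Alamar Blue. Each well value was divided by the mean of 8 DMSO control wells on the same plate and log10 transformed; duplicate blinded samples were tested at 4 concentrations.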

[2] = compound: C=CC(=O)OCCC(F)(F)C(F)(F)C(F)(F)C(F)(F)F [2-(Perfluorobutyl)ethyl acrylate]
Protocol: as §1

[3] = compound: FC(F)(F)C(F)(F)C(F)(F)C(F)(F)C(F)(F)C(F)(F)C(F)(F)CCI [1-Iodo-1H,1H,2H,2H-perfluorononane]
Protocol: as §1

Perfluorooctanamide = compound: NC(=O)C(F)(F)C(F)(F)C(F)(F)C(F)(F)C(F)(F)C(F)(F)C(F)(F)F [Perfluorooctanamide]
Protocol: as §1

Hexafluoroglutaric acid = compound: O=C(O)C(F)(F)C(F)(F)C(F)(F)C(=O)O [Hexafluoroglutaric acid]
Protocol: as §1

[4] = compound: O=S(=O)(O)C(F)(F)C(F)(F)C(F)(F)C(F)(F)F [Perfluorobutanesulfonic acid]
Protocol: as §1

1H,1H-Heptafluorobutanol = compound: OCC(F)(F)C(F)(F)C(F)(F)F [1H,1H-Heptafluorobutanol]
Protocol: as §1

Test System | level (log10) ([1]; 6700 nM) | level (log10) ([1]; 20000 nM) | level (log10) ([2]; 6700 nM) | level (log10) ([2]; 20000 nM) | level (log10) ([2]; 60000 nM) | level (log10) ([3]; 6700 nM) | level (log10) ([3]; 20000 nM) | level (log10) (Perfluorooctanamide; 6700 nM) | level (log10) (Perfluorooctanamide; 20000 nM) | level (log10) (Perfluorooctanamide; 60000 nM) | level (log10) (Hexafluoroglutaric acid; 6700 nM) | level (log10) (Hexafluoroglutaric acid; 20000 nM) | level (log10) (Hexafluoroglutaric acid; 60000 nM) | level (log10) ([4]; 6700 nM) | level (log10) ([4]; 20000 nM) | level (log10) ([4]; 60000 nM) | level (log10) (1H,1H-Heptafluorobutanol; 6700 nM) | level (log10) (1H,1H-Heptafluorobutanol; 20000 nM) | level (log10) (1H,1H-Heptafluorobutanol; 60000 nM)
BE3C:CXCL8/IL-8 | 0.011 ± 0.024 | 0.0275 ± 0.015 | 0.006 ± 0.025 | -0.0165 ± 0.06 | -0.016 ± 0.095 | 0.018 ± 0.11 | 0.0505 ± 0.12 | 0.011 ± 0.0028 | 0.011 ± 0.0071 | -0.0045 ± 0.005 | -0.011 ± 0.014 | -0.0165 ± 0.0064 | -0.011 ± 0.02 | 0.0075 ± 0.035 | 0.013 ± 0.028 | 0.0005 ± 0.0092 | 0.0275 ± 0.063 | 0 ± 0.04 | 0.003 ± 0.033
BE3C:CXCL9/MIG | 0.0015 ± 0.00071 | -0.0085 ± 0.0035 | 0.0005 ± 0.005 | -0.0085 ± 0.005 | 0.003 ± 0.0057 | -0.0085 ± 0.0035 | -0.0015 ± 0.0092 | 0.0075 ± 0.028 | 0.0025 ± 0.019 | 0.012 ± 0.011 | 0.001 ± 0.0042 | 0.008 | -0.0055 ± 0.0021 | 0.01 ± 0.034 | 0.0025 ± 0.023 | 0.013 ± 0.0057 | -0.001 | 0.0025 ± 0.0035 | 0.007 ± 0.0028
BE3C:CXCL10/IP-10 | 0.0135 ± 0.018 | -0.004 ± 0.014 | -0.0025 ± 0.00071 | -0.007 ± 0.0057 | -0.012 ± 0.013 | 0 ± 0.016 | 0.0025 ± 0.011 | -0.0025 ± 0.028 | -0.005 ± 0.0071 | -0.0135 ± 0.015 | -0.001 ± 0.0042 | -0.0085 ± 0.00071 | 0.0015 ± 0.023 | 0.009 ± 0.038 | -0.0015 ± 0.028 | 0.0005 ± 0.018 | 0.0345 ± 0.023 | 0.0195 ± 0.035 | 0.0265 ± 0.032
BE3C:CXCL11/I-TAC | -0.0085 ± 0.016 | -0.0095 ± 0.0021 | 0.0035 ± 0.00071 | -0.0065 ± 0.012 | -0.018 ± 0.0028 | -0.004 ± 0.0057 | -0.001 ± 0.0042 | 0.0015 ± 0.013 | 0.004 ± 0.0042 | 0 ± 0.0014 | 0.0045 ± 0.028 | -0.002 ± 0.024 | 0.0045 ± 0.013 | 0.0115 ± 0.012 | 0.0065 ± 0.00071 | 0.007 ± 0.0071 | 0.0065 ± 0.0035 | 0.0145 ± 0.023 | 0.0085 ± 0.023
BE3C:EGFR | -0.0175 ± 0.011 | -0.0295 ± 0.011 | -0.003 | -0.0065 ± 0.00071 | -0.014 ± 0.023 | 0.005 ± 0.014 | -0.008 ± 0.02 | 0.012 ± 0.011 | -0.002 ± 0.0085 | 0.035 ± 0.016 | -0.0055 ± 0.0035 | -0.0175 ± 0.005 | 0.0025 ± 0.012 | -0.0045 ± 0.021 | 0 ± 0.018 | 0.0005 ± 0.0092 | 0.009 ± 0.014 | 0.0135 ± 0.022 | 0.016 ± 0.027
BE3C:HLA-DR | 0.008 ± 0.0085 | 0.001 ± 0.013 | 0.0145 ± 0.022 | -0.02 ± 0.0071 | -0.0575 ± 0.005 | -0.0065 ± 0.0035 | -0.0225 ± 0.0092 | 0.001 ± 0.017 | -0.0035 ± 0.0078 | 0.0025 ± 0.0092 | -0.006 | -0.017 ± 0.0014 | -0.021 ± 0.028 | -0.003 | 0 ± 0.0028 | 0.0035 ± 0.018 | -0.0035 ± 0.0021 | 0.0105 ± 0.00071 | 0.02 ± 0.03
BE3C:IL-1alpha | -0.008 ± 0.013 | 0.0405 ± 0.042 | -0.0035 ± 0.022 | -0.0305 ± 0.03 | -0.012 ± 0.0057 | -0.0075 ± 0.0078 | 0.0075 ± 0.026 | -0.015 ± 0.011 | -0.003 ± 0.0042 | 0.0045 ± 0.0064 | -0.014 ± 0.027 | -0.0295 ± 0.005 | -0.0045 ± 0.016 | -0.0175 ± 0.012 | -0.013 ± 0.0085 | -0.0075 ± 0.012 | 0.003 ± 0.011 | -0.0095 ± 0.022 | -0.0035 ± 0.018
BF4T:CCL2/MCP-1 | -0.008 ± 0.035 | 0.0195 ± 0.013 | -0.009 ± 0.013 | -0.01 ± 0.0028 | -0.0325 ± 0.029 | -0.0135 ± 0.015 | -0.0245 ± 0.066 | 0.011 ± 0.0042 | -0.0015 ± 0.0035 | -0.009 ± 0.037 | 0.0015 ± 0.043 | -0.0225 ± 0.005 | 0.0085 ± 0.032 | 0.028 ± 0.0014 | 0.026 ± 0.024 | 0.033 ± 0.018 | -0.002 ± 0.018 | 0.003 ± 0.057 | -0.0135 ± 0.0021
BF4T:CCL26/Eotaxin-3 | 0.002 ± 0.055 | -0.0155 ± 0.042 | -0.0005 ± 0.018 | -0.0295 ± 0.023 | -0.019 ± 0.02 | -0.0075 ± 0.0021 | -0.061 ± 0.0099 | 0.016 ± 0.017 | -0.0015 ± 0.057 | -0.0475 ± 0.0064 | 0.016 ± 0.054 | 0.0055 ± 0.042 | 0.043 ± 0.011 | -0.057 ± 0.09 | -0.014 ± 0.035 | -0.003 ± 0.047 | 0.0275 ± 0.04 | 0.0405 ± 0.022 | 0.0315 ± 0.013
BF4T:CD54/ICAM-1 | -0.0015 ± 0.016 | -0.0075 ± 0.0064 | -0.0085 ± 0.0078 | -0.013 ± 0.0099 | -0.064 ± 0.014 | -0.007 ± 0.018 | -0.0345 ± 0.0064 | -0.0175 ± 0.0064 | -0.006 ± 0.014 | -0.015 ± 0.0028 | 0.0025 ± 0.005 | -0.01 ± 0.0057 | 0.006 ± 0.011 | -0.027 ± 0.0085 | -0.002 ± 0.0014 | -0.0115 ± 0.019 | 0.0035 ± 0.0021 | 0.008 ± 0.0085 | 0.001 ± 0.013
BF4T:CD90 | -0.0135 ± 0.0064 | -0.011 ± 0.0085 | -0.017 ± 0.0028 | -0.025 ± 0.0099 | -0.016 ± 0.0071 | -0.0245 ± 0.021 | -0.0345 ± 0.0021 | -0.0065 ± 0.0021 | -0.0035 ± 0.021 | -0.0155 ± 0.0035 | 0.0025 ± 0.0092 | 0.009 ± 0.0042 | 0.0175 ± 0.005 | -0.007 ± 0.0042 | -0.008 ± 0.021 | -0.015 ± 0.011 | -0.0035 ± 0.012 | -0.0045 ± 0.021 | -0.0045 ± 0.0035
BF4T:CD106/VCAM-1 | 0.015 ± 0.014 | 0.0105 ± 0.05 | 0.005 ± 0.0042 | -0.033 ± 0.025 | -0.08 ± 0.0028 | -0.027 ± 0.0085 | -0.061 ± 0.014 | -0.009 ± 0.02 | 0 ± 0.0099 | -0.0005 ± 0.03 | -0.0055 ± 0.023 | -0.0095 ± 0.0078 | -0.002 ± 0.017 | -0.0175 ± 0.0078 | -0.0325 ± 0.046 | -0.021 ± 0.0028 | -0.0155 ± 0.0021 | -0.0105 ± 0.019 | -0.005 ± 0.0071
BF4T:CXCL8/IL-8 | 0.011 ± 0.013 | 0.007 ± 0.0099 | -0.006 ± 0.023 | -0.0105 ± 0.025 | 0.005 ± 0.027 | -0.0015 ± 0.018 | 0.011 ± 0.025 | -0.0035 ± 0.013 | -0.0005 ± 0.026 | -0.0025 ± 0.03 | 0.0125 ± 0.039 | 0.009 ± 0.041 | 0.0345 ± 0.0035 | -0.0205 ± 0.0064 | 0.006 ± 0.0057 | 0.0095 ± 0.013 | 0.019 ± 0.071 | 0.03 ± 0.071 | 0.034 ± 0.089
BF4T:IL-1alpha | -0.0175 ± 0.025 | 0.006 ± 0.0099 | -0.0115 ± 0.0078 | -0.0305 ± 0.011 | 0.012 ± 0.038 | -0.011 ± 0.0042 | 0.033 ± 0.031 | 0.008 ± 0.0099 | 0.003 ± 0.017 | -0.001 ± 0.024 | -0.0065 ± 0.015 | -0.0195 ± 0.0035 | -0.0045 ± 0.033 | 0.0135 ± 0.00071 | 0.0135 ± 0.016 | 0.011 ± 0.016 | -0.0125 ± 0.0092 | -0.016 | -0.007 ± 0.0042
BF4T:Keratin 8/18 | 0.014 ± 0.0028 | -0.003 ± 0.0014 | -0.003 ± 0.055 | 0.0035 ± 0.059 | 0.0085 ± 0.036 | -0.016 ± 0.052 | -0.0135 ± 0.0092 | -0.023 ± 0.018 | 0.002 ± 0.021 | -0.0075 ± 0.023 | -0.006 ± 0.013 | -0.0145 ± 0.015 | 0.0005 ± 0.00071 | -0.0245 ± 0.028 | -0.0145 ± 0.011 | -0.0045 ± 0.015 | -0.036 ± 0.065 | -0.025 ± 0.037 | -0.019 ± 0.037
BF4T:MMP-1 | -0.0075 ± 0.015 | 0.016 ± 0.011 | -0.003 ± 0.044 | -0.003 ± 0.051 | 0.047 ± 0.031 | 0.001 ± 0.035 | 0.016 ± 0.033 | -0.0195 ± 0.0078 | 0.0055 ± 0.005 | -0.0385 ± 0.011 | 0.0035 ± 0.013 | 0.0215 ± 0.012 | 0.018 ± 0.0099 | 0.0035 ± 0.0064 | -0.009 ± 0.013 | -0.0045 ± 0.00071 | 0.002 ± 0.013 | 0.0085 ± 0.00071 | -0.002 ± 0.018

Source: the supplement of paper PMC10331698
